Results taken from patent US12492173B2, “Herbicidal substituted N-tetrazolyl aryl carboxamides” (Bayer Aktiengesellschaft, priority 2019, dated 2025).

Columns and labels:
Assay type in all cases: in vivo
Amaranthus retroflexus [1] = assay: Pre-emergence herbicidal action, AMARE; design: key to Herbicidal action against AMARE: % activity: 100 = plants have died, 0 = like control plants; settings: for herbicidal action AMARE: dosage 320 g/ha
How it was run: (§1)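 Weed seeds sown in sandy loam and covered; WP or EC formulations applied to soil surface as aqueous suspension or emulsion at 600 to 800 l/ha with 0.2% wetting agent. Greenhouse-grown, with damage scored visually after 3 weeks versus untreated controls (0% = like control, 100% = plants dead).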

Veronica persica [2] = assay: Post-emergence herbicidal action, VERPE; design: key: % herbicidal action vs untreated; 100 = plants died, 0 = like control; settings: for Herbicidal action against VERPE: post-emergence, dosage 80 g/ha
How it was run: (§2)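 One-leaf-stage weeds, raised from seed in greenhouse sandy loam, received a single foliar spray of compound as wettable powder or emulsion concentrate with 0.2% wetting agent added. Growth continued under optimal conditions for about 3 weeks before percent damage was scored by eye against controls.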

Polygonum convolvulus [3] = assay: Post-emergence herbicidal action, POLCO; settings: for Herbicidal action against POLCO: post-emergence, dosage 80 g/ha
Experimental: (§3) [table] 2. Post-Emergence Herbicidal Action Against Harmful Plants Seeds of monocotyledonous and dicotyledonous weed and crop plants are laid out in sandy loam soil in wood-fiber pots, covered with soil and cultivated in a greenhouse under good growth conditions. 2 to 3 weeks after sowing, the test plants are treated at the one-leaf stage. The compounds of the invention, formulated in the form of wettable powders (WP) or as emulsion concentrates (EC), are then sprayed onto the green parts of the plants in the form of an aqueous suspension or emulsion at a water application rate equating to 600 to 800 l/ha, with addition of 0.2% wetting agent. After the test plants have been left to stand in the greenhouse under optimal growth conditions for about 3 weeks, the action of the preparations is assessed visually in comparison to untreated controls (herbicidal action in percent (%): 100% activity=the plants have died, 0% activity=like control plants). […] The tables below illustrate, in an exemplary manner, the post-emergence herbicidal action of the compounds according to the invention, the herbicidal activity being stated in percent. In the experiments that follow, herbicidal action of numerous inventive compounds and the known compounds that are structurally closest from D1 (WO 2012/028579 A1) and D2 (WO 2018/202535 A1) were compared under the above-specified conditions by the pre-emergence and post-emergence method. The example numbers given in the tables relate to the compounds disclosed in the respective documents. In addition to the compounds disclosed in D1 and D2, the following compounds V-1 to V-14 that are encompassed by D1 or D2 but are not compounds specified therein were used in the comparative experiments: • V-1: 2-(methylsulfanyl)-3-(methylsulfinyl)-N-(1-methyl-1H-tetrazol-5-yl)-4-(trifluoromethyl)benzamide • V-2: 2-(methylsulfanyl)-3-(methylsulfonyl)-N-(1-methyl-1H-tetrazol-5-yl)-4-(trifluoromethyl)benzamide • V-3: 2,3-bis(ethylsulfanyl)-N-(1-methyl-1H-tetrazol-5-yl)-4-(trifluoromethyl)benzamide • V-4: 2-chloro-3-(ethylsulfanyl)-N-(1-methyl-1H-tetrazol-5-yl)-4-(trifluoromethyl)benzamide • V-5: 2-chloro-4-iodo-3-(methylsulfanyl)-N-(1-methyl-1H-tetrazol-5-yl)benzamide • V-6: 2-chloro-4-iodo-3-(methylsulfinyl)-N-(1-methyl-1H-tetrazol-5-yl)benzamide • V-7: 2-chloro-4-iodo-3-(methylsulfonyl)-N-(1-methyl-1H-tetrazol-5-yl)benzamide • V-8: 2-bromo-3-(methylsulfanyl)-N-(1-methyl-1H-tetrazol-5-yl)-4-(trifluoromethyl)benzamide • V-9: 2-bromo-3-(methylsulfinyl)-N-(1-methyl-1H-tetrazol-5-yl)-4-(trifluoromethyl)benzamide • V-10: 2-bromo-3-(methylsulfonyl)-N-(1-methyl-1H-tetrazol-5-yl)-4-(trifluoromethyl)benzamide • V-11: 2-bromo-3-(ethylsulfanyl)-N-(1-methyl-1H-tetrazol-5-yl)-4-(trifluoromethyl)benzamide • V-12: 2-bromo-3-(ethylsulfinyl)-N-(1-methyl-1H-tetrazol-5-yl)-4-(trifluoromethyl)benzamide • V-13: 2-bromo-3-(ethylsulfonyl)-N-(1-methyl-1-1H-tetrazol-5-yl)-4-(trifluoromethyl)benzamide • V-14: 2-cyclopropyl-3-(ethylsulfanyl)-N-(1-methyl-1H-tetrazol-5-yl)-4-(trifluoromethyl)benzamide Herbicidal Pre-Emergence Action: […]

Stellaria media [4] = assay: Pre-emergence herbicidal action, STEME; design: key to Herbicidal action against STEME: % activity: 100 = plants have died, 0 = like control plants; settings: for herbicidal action STEME: dosage 320 g/ha
Description: (§4) 1. Pre-Emergence Herbicidal Action Against Harmful Plants Seeds of monocotyledonous and dicotyledonous weed plants and crop plants are laid out in sandy loam soil in wood-fiber pots and covered with soil. The compounds of the invention, formulated in the form of wettable powders (WP) or as emulsion concentrates (EC), are then applied to the surface of the covering soil in the form of an aqueous suspension or emulsion at a water application rate equating to 600 to 800 l/ha, with addition of 0.2% wetting agent. After the treatment, the pots are placed in a greenhouse and kept under good growth conditions for the trial plants. The damage to the test plants is scored visually after a test period of 3 weeks by comparison with untreated controls (herbicidal activity in percent (%): 100% activity=the plants have died, 0% activity=like control plants). […] The tables below illustrate, in an exemplary manner, the […] herbicidal action of the compounds according to the invention, the herbicidal activity being stated in percent. [table] In the experiments that follow, herbicidal action of numerous inventive compounds and the known compounds that are structurally closest from D1 (WO 2012/028579 A1) and D2 (WO 2018/202535 A1) were compared under the above-specified conditions by the pre-emergence and post-emergence method. The example numbers given in the tables relate to the compounds disclosed in the respective documents. In addition to the compounds disclosed in D1 and D2, the following compounds V-1 to V-14 that are encompassed by D1 or D2 but are not compounds specified therein were used in the comparative experiments: • V-1: 2-(methylsulfanyl)-3-(methylsulfinyl)-N-(1-methyl-1H-tetrazol-5-yl)-4-(trifluoromethyl)benzamide • V-2: 2-(methylsulfanyl)-3-(methylsulfonyl)-N-(1-methyl-1H-tetrazol-5-yl)-4-(trifluoromethyl)benzamide • V-3: 2,3-bis(ethylsulfanyl)-N-(1-methyl-1H-tetrazol-5-yl)-4-(trifluoromethyl)benzamide • V-4: 2-chloro-3-(ethylsulfanyl)-N-(1-methyl-1H-tetrazol-5-yl)-4-(trifluoromethyl)benzamide • V-5: 2-chloro-4-iodo-3-(methylsulfanyl)-N-(1-methyl-1H-tetrazol-5-yl)benzamide • V-6: 2-chloro-4-iodo-3-(methylsulfinyl)-N-(1-methyl-1H-tetrazol-5-yl)benzamide • V-7: 2-chloro-4-iodo-3-(methylsulfonyl)-N-(1-methyl-1H-tetrazol-5-yl)benzamide • V-8: 2-bromo-3-(methylsulfanyl)-N-(1-methyl-1H-tetrazol-5-yl)-4-(trifluoromethyl)benzamide • V-9: 2-bromo-3-(methylsulfinyl)-N-(1-methyl-1H-tetrazol-5-yl)-4-(trifluoromethyl)benzamide • V-10: 2-bromo-3-(methylsulfonyl)-N-(1-methyl-1H-tetrazol-5-yl)-4-(trifluoromethyl)benzamide • V-11: 2-bromo-3-(ethylsulfanyl)-N-(1-methyl-1H-tetrazol-5-yl)-4-(trifluoromethyl)benzamide • V-12: 2-bromo-3-(ethylsulfinyl)-N-(1-methyl-1H-tetrazol-5-yl)-4-(trifluoromethyl)benzamide • V-13: 2-bromo-3-(ethylsulfonyl)-N-(1-methyl-1-1H-tetrazol-5-yl)-4-(trifluoromethyl)benzamide • V-14: 2-cyclopropyl-3-(ethylsulfanyl)-N-(1-methyl-1H-tetrazol-5-yl)-4-(trifluoromethyl)benzamide Herbicidal Pre-Emergence Action: […]

Pharbitis purpurea [5] = assay: Post-emergence herbicidal action, PHBPU; settings: for Herbicidal action against PHBPU: post-emergence, dosage 80 g/ha
How it was run: as §2

Veronica persica [6] = assay: Pre-emergence herbicidal action, VERPE; design: key to Herbicidal action against VERPE: % activity: 100 = plants have died, 0 = like control plants; settings: for herbicidal action VERPE: dosage 320 g/ha
How it was run: as §1

Setaria viridis [7] = assay: Pre-emergence herbicidal action, SETVI; design: key to Herbicidal action against SETVI: % activity: 100 = plants have died, 0 = like control plants
Description: as §4

Matricaria inodora [8] = assay: Post-emergence herbicidal action, MATIN; design: key: % herbicidal action vs untreated; 100 = plants died, 0 = like control
How it was run: as §2

Matricaria inodora [9] = assay: Pre-emergence herbicidal action, MATIN; settings: dosage 320 g/ha
How it was run: as §1

Amaranthus retroflexus [10] = assay: Post-emergence herbicidal action, AMARE; design: key: % herbicidal action vs untreated; 100 = plants died, 0 = like control; settings: for Herbicidal action against AMARE: post-emergence, dosage 80 g/ha
How it was run: as §2

Viola tricolor [11] = assay: Post-emergence herbicidal action, VIOTR; design: key: % herbicidal action vs untreated; 100 = plants died, 0 = like control; settings: for Herbicidal action against VIOTR: post-emergence, dosage 80 g/ha
How it was run: as §2

Stellaria media [12] = assay: Post-emergence herbicidal action, STEME; design: key: % herbicidal action vs untreated; 100 = plants died, 0 = like control; settings: for Herbicidal action against STEME: post-emergence, dosage 80 g/ha
How it was run: as §2

Polygonum convolvulus [13] = assay: Pre-emergence herbicidal action, POLCO; settings: for herbicidal action POLCO: dosage 320 g/ha
Description: as §4

Echinochloa crus-galli [14] = assay: Pre-emergence herbicidal action, ECHCG; settings: for herbicidal action ECHCG: dosage 320 g/ha
How it was run: as §1

Setaria viridis [15] = assay: Post-emergence herbicidal action, SETVI; design: key: % herbicidal action vs untreated; 100 = plants died, 0 = like control
How it was run: as §2

Echinochloa crus-galli [16] = assay: Post-emergence herbicidal action, ECHCG; design: key: % herbicidal action vs untreated; 100 = plants died, 0 = like control; settings: for Herbicidal action against ECHCG: post-emergence, dosage 80 g/ha
How it was run: as §2

Abutilon theophrasti = assay: Post-emergence herbicidal action, ABUTH; design: key: % herbicidal action vs untreated; 100 = plants died, 0 = like control
How it was run: as §2

Alopecurus myosuroides = assay: Post-emergence herbicidal action, ALOMY; design: key: % herbicidal action vs untreated; 100 = plants died, 0 = like control; settings: Dosage 80 g/ha
Experimental: as §3

Pharbitis purpurea [17] = assay: Pre-emergence herbicidal action, PHBPU; settings: comparative experiment, 20 g of a.i./ha
Description: as §4

Viola tricolor [18] = assay: Pre-emergence herbicidal action, VIOTR; settings: dosage 320 g/ha
How it was run: as §1

[19] = comparative experiment, 20 g of a.i./ha

Row | Structure (SMILES) | herbicidal action AMARE (Amaranthus retroflexus [1]) [%] | Herbicidal action against VERPE (Veronica persica [2]) | Herbicidal action against POLCO (Polygonum convolvulus [3]) | herbicidal action STEME (Stellaria media [4]) [%] | Herbicidal action against PHBPU (Pharbitis purpurea [5]) | herbicidal action VERPE (Veronica persica [6]) [%] | herbicidal action MATIN (Matricaria inodora [9]) [%] | Herbicidal action against AMARE (Amaranthus retroflexus [10]) | Herbicidal action against VIOTR (Viola tricolor [11]) | Herbicidal action against STEME (Stellaria media [12]) | herbicidal action POLCO (Polygonum convolvulus [13]) [%] | herbicidal action ECHCG (Echinochloa crus-galli [14]) [%] | Herbicidal action against ECHCG (Echinochloa crus-galli [16]) | other results
1 | CCn1nnnc1NC(=O)c1ccc(C)c(CS(C)(=O)=O)c1Cl [Example 2-289] | 100 | 90 | 80 | 90 | 90 | 90 | 100 | 100 | 80 | 100 | 80 | 100 | 100 | herbicidal action SETVI (Setaria viridis [7]; dosage 320 g/ha): 100%; Herbicidal action against MATIN (Matricaria inodora [8]; post-emergence, dosage 80 g/ha): 100; Herbicidal action against SETVI (Setaria viridis [15]; post-emergence, dosage 80 g/ha): 100
2 | Cn1nnnc1NC(=O)c1ccc(I)c(S(C)(=O)=O)c1Cl [Example V-7, 2-chloro-4-iodo-3-(methylsulfonyl)-N-(1-methyl-1H-tetrazol-5-yl)benzamide, reference compound] |  |  |  |  |  |  |  |  |  |  |  |  |  | Herbicidal action against AMARE (Amaranthus retroflexus [1]; [19]): 30; Herbicidal action against STEME (Stellaria media [4]; [19]): 0; Herbicidal action against VERPE (Veronica persica [6]; [19]): 40; Herbicidal action against SETVI (Setaria viridis [7]; [19]): 0; Herbicidal action against POLCO (Polygonum convolvulus [13]; [19]): 0; pest or weed control at 20 g/ha (Echinochloa crus-galli [14]; Echinochloa crus-galli, 504 h, comparative experiment, 20 g of a.i./ha, read-out: Herbicidal action against ECHCG): 10%
3 | CCn1nnnc1NC(=O)c1ccc(C)c(C[S+](C)[O-])c1Cl (stereo not drawn) [Example 2-288] | 100 |  |  | 90 |  | 100 | 90 |  |  |  |  | 100 |  | herbicidal action ABUTH (Abutilon theophrasti; Dosage 80 g/ha): 90; herbicidal action VERPE (Veronica persica [2]; Dosage 80 g/ha): 100; herbicidal action POLCO (Polygonum convolvulus [3]; Dosage 80 g/ha): 90; herbicidal action PHBPU (Pharbitis purpurea [5]; Dosage 80 g/ha): 90; herbicidal action ALOMY (Alopecurus myosuroides): 80; herbicidal action MATIN (Matricaria inodora [8]; Dosage 80 g/ha): 90; herbicidal action AMARE (Amaranthus retroflexus [10]; Dosage 80 g/ha): 100; herbicidal action VIOTR (Viola tricolor [11]; Dosage 80 g/ha): 80; herbicidal action STEME (Stellaria media [12]; Dosage 80 g/ha): 100; herbicidal action SETVI (Setaria viridis [15]; Dosage 80 g/ha): 90; herbicidal action ECHCG (Echinochloa crus-galli [16]; Dosage 80 g/ha): 90
4 | CCSCc1c(C(F)(F)F)ccc(C(=O)Nc2nnnn2C)c1C1CC1 [Example 1-517] |  |  |  |  |  |  |  |  |  |  |  |  |  | Herbicidal action against PHBPU (Pharbitis purpurea [17]): 60
5 | CCS(=O)(=O)Cc1c(C(F)F)ccc(C(=O)Nc2nnnn2C)c1S(=O)(=O)CC [Example 1-229] | 100 | 90 | 80 | 100 | 80 | 100 | 90 | 80 | 90 | 100 | 100 | 100 | 90 | Herbicidal action against ABUTH (Abutilon theophrasti; post-emergence, dosage 80 g/ha): 100; herbicidal action VIOTR (Viola tricolor [18]): 100%
